According to article PMC4562813 (Bioorganic & medicinal chemistry, 2015):

Legend:
[1] = tested on: RPMI-8226 leukemia cell line; test: NCI dose-dependent growth inhibition, RPMI-8226; assay type: cell-based; conditions: 48-h exposure, optical density, data provided by NCI
[2] = molecular target: human 20S proteasome (hs20S), trypsin-like activity mediated by the β2 subunit (Homo sapiens, UniProt P49720+Q99436); assay type: biochemical; conditions: Boc-LRR-AMC, Table 2
SR leukemia cell line = test: NCI dose-dependent growth inhibition, SR; assay type: cell-based; conditions: 48-h exposure, optical density, data provided by NCI
K-562 leukemia cell line = test: NCI dose-dependent growth inhibition, K-562; assay type: cell-based; conditions: 48-h exposure, optical density, data provided by NCI
HL-60 leukemia cell line = test: NCI dose-dependent growth inhibition, HL-60; assay type: cell-based; conditions: 48-h exposure, optical density, data provided by NCI
[3] = tested on: MOLT-4 leukemia cell line; test: NCI dose-dependent growth inhibition, MOLT-4; assay type: cell-based; conditions: 48-h exposure, optical density, data provided by NCI

## syringolin B methyl ester [Compound 1]
[1]
  GI50: 3.97 µM
[2]
  Trypsin-Like Activity kin/Ki: 326 M⁻¹ s⁻¹
SR leukemia cell line
  GI50: 5.13 µM
K-562 leukemia cell line
  GI50: 6.12 µM
HL-60 leukemia cell line
  GI50: 5.41 µM
[3]
  GI50: 4.73 µM
